From US20090263416A1, “REDUCTION OF ANTIBIOTIC RESISTANCE IN BACTERIA” (priority 2006, published 2009) come the findings set out here.

Structures are written as SMILES.

What all share (type): cell-based
For one assay, the system named is E. coli of swine origin. Nature of the assay: Curing of antibiotic resistance (replica plating). The following applies: for curing for amoxicillin and clavulanic acid / curing for ampicillin / curing for chloramphenicol: isolates treated with EB or IDU. Here is the method: (§1) Plasmid curing of antibiotic resistant bacteria was measured as described by Lakshmi and Thomas (1989) and NCCLS (2000). Briefly, aliquots (final inoculum concentration approximately 1×10^5 CFU/ml) of Salmonella isolates, E. coli isolates, and commercial isolates of E. coli XL1-blue and E. coli RK2 were added to tubes containing 1 ml aliquots of increasing concentrations of P-YCWP or YCWP (0, 0.01, 0.1, 0.3, 0.5, 1.0, 2.0, 3.0% w/v). A control culture was established by adding bacterial isolates as described above to aliquots of increasing concentrations of mannose. Known curing agents [ethidium bromide and iododeoxyuridine (IDU)] were used as positive controls, and to provide a percent curing activity. Tubes were incubated at 35° C. for 24 hr.
(§2) Following incubation, bacterial aliquots were plated on MacConkey agar plates (master plates). Antibiotic resistance after treatment was evaluated by replica plating on MacConkey agar containing predetermined concentrations of antimicrobial agents. Minimum curing concentration (MCC) was defined as the minimum concentration of compound able to “cure” bacteria, that is, remove antibiotic resistance, within a 24 hr period. A sample was considered to contain bacteria resistant to an antibiotic when greater than 1% of a sample plated on a master plate of MacConkey agar grew on an antibiotic-containing replica plate.

The next assay relates to Salmonella spp. (13). Nature of the assay: Agglutination. As to conditions: sugar 100 mM. Here is the method: (§3) E. coli and Salmonella isolates were evaluated for ability to agglutinate P-YCWP and YCWP by growing isolates into TIF slants (10 g peptone, 5 g NaCl, 5 g yeast extract and 15 g bacto agar per liter) for 24 hr. Sugar solutions (100 mM) of glucose, mannose, or fructose were prepared in 100 mM phosphate-buffered solution (PBS) at pH 7.2. Yeast cell wall preparations were suspended (1 g YCWP) into 1 liter of PBS. The grown isolates were resuspended in PBS and mixed with 0.1 ml PBS as control or 0.1 ml sugar solution (glucose, mannose, or fructose) to occupy bacterial attachment sites. For adherence tests, 10 μl of P-YCWP or YCWP suspension was placed on a series of microscope slides. The negative control was […] of PBS mixed with YCWP suspension. Bacterial suspension (10 μl) as described above was added, mixed using an orbital shaker, and observed under light microscope (100-1000× magnification). The ability of any of the sugars to inhibit or weaken agglutination was considered evidence that that sugar played a role in agglutination/attachment for that bacteria.

A further assay relates to S. pullorum (1). Nature of the assay: Agglutination. As to conditions: sugar 100 mM. As to the method:
as §3

The next assay relates to E. coli (30). In words: Agglutination. As to conditions: sugar 100 mM. Here is the method: as §3
A further assay deals with S. Cholerasuis (2). Nature of the assay: Agglutination. The following applies: sugar 100 mM. Here is the method:
as §3

Assay [1] concerns S. enteritidis (ATCC 13076). Nature of the assay: Curing / plasmid loss. As to conditions: streptomycin-resistant; 24 hr exposure, replica plating. Here is the method: as §1
(§4) Following incubation, bacterial aliquots were plated on MacConkey agar plates (master plates). Antibiotic resistance after treatment was evaluated by replica plating on MacConkey agar containing predetermined concentrations of antimicrobial agents. Minimum curing concentration (MCC) was defined as the minimum concentration of compound able to “cure” bacteria, that is, remove antibiotic resistance, within a 24 hr period. […]
(§5) Plasmids were evaluated by microbial lysis and extraction of DNA (Mini-prep System, Bio-Rad Laboratories, Hercules, Calif.), followed by electrophoretic separation on 1% agarose gel (Bio-Rad). […]

In assay [2] the test system is E. coli ATCC 33766, plasmid pRK248clts. Nature of the assay: Curing, broad range plasmid strain. As to conditions: tetracycline-resistant determinant; data not shown. Here is the method: as §1, §2
In another assay the test system is E. coli XL1-blue. Nature of the assay: Curing / plasmid loss, narrow range plasmid strain. The following applies: FIG. 4. As to the method: as §1, §4, §5

For the compound `CC[n+]1c(-c2ccccc2)c2cc(N)ccc2c2ccc(N)cc21` [EB, ethidium bromide], in the assay with E. coli of swine origin, the “curing for amoxicillin and clavulanic acid” value worked out at 100%; the curing for ampicillin was found to be 5%; the curing for chloramphenicol is 100%.

As for `O=C(CO)[C@@H](O)[C@H](O)[C@H](O)CO` [Fructcose, fructose], the “agglutination with YCWP or P-YCWP in presence of sugar” value in the assay with Salmonella spp. (13), with S. pullorum (1), with E. coli (30) and with S. Cholerasuis (2) was “Negative (−)” in each case.

`O=c1[nH]c(=O)n([C@H]2C[C@H](O)[C@@H](CO)O2)cc1I` [IDU, iododeoxyuridine]: the curing entry in assay [1] is “Neither EB nor IDU showed any curing capacity”. Besides, in the assay with E. coli of swine origin (EB or IDU treatment), the curing for neomycin entry is “no curing” and the curing for tetracycline result is “no curing”. In the assay with E. coli of swine origin, the “curing for amoxicillin and clavulanic acid” value is reported as 100%; the curing for ampicillin is reported as 5%; the curing for chloramphenicol stood at 100%. In addition, in assay [2], the “curing of the organism carrying the broad range plasmid” value is given as “Neither yeast cell wall preparations nor traditional curing agents (EB, IDU) cured the organism”. In addition, the curing entry in the assay on E. coli XL1-blue is listed as “curing was seen”.
